Test results taken from ChEMBL document CHEMBL3217755, “Design, synthesis and biological evaluation of biphenyl urea derivatives as novel VEGFR-2 inhibitors” (Medchemcomm, 2013).

Experiments:
[1] = tested on: HeLa; assay: Antiproliferative activity against human HeLa cells after 48 hrs by MTT assay; assay type: functional, cell-based
[2] = Antiproliferative activity against human SMMC7721 cells after 48 hrs by MTT assay; assay type: functional, cell-based; settings: SMMC-7721, 48 h
[3] = tested on: A549; assay: Antiproliferative activity against human A549 cells after 48 hrs by MTT assay; assay type: functional, cell-based; settings: A549, 48 h
[4] = tested on: MDA-MB-231; assay: Antiproliferative activity against human MDA-MB-231 cells after 48 hrs by MTT assay; assay type: functional, cell-based; settings: MDA-MB-231, 48 h
[5] = tested on: SH-SY5Y; assay: Antiproliferative activity against human SH-SY5Y cells after 48 hrs by MTT assay; assay type: functional, cell-based
[6] = tested on: K562; assay: Antiproliferative activity against human K562 cells after 48 hrs by MTT assay; settings: K562, 48 h
[7] = Antiproliferative activity against human SGC7901 cells after 48 hrs by MTT assay; assay type: functional, cell-based; settings: SGC-7901, 48 h
[8] = tested on: LoVo; assay: Antiproliferative activity against human LoVo cells after 48 hrs by MTT assay; assay type: functional, cell-based
[9] = tested on: SK-BR-3; assay: Antiproliferative activity against human SK-BR-3 cells after 48 hrs by MTT assay; assay type: functional, cell-based; settings: SK-BR-3, 48 h

SMILES | IC50 [1] | IC50 [2] | IC50 [3] | IC50 [4] | IC50 [5] | IC50 [6] | IC50 [7] | IC50 [8] | IC50 [9]
COc1cc(-c2cc(NC(=O)Nc3ccc(OCCCN4CCOCC4)cc3C)cc(OC)c2OC)ccc1/C(C)=N/O | 243 µM | 33.3 µM | 23.7 µM | 49.2 µM | 18.4 µM | 15.8 µM | – | – | –
COc1cc(-c2cc(NC(=O)Nc3ccc(OCCN(C)C)cc3)cc(OC)c2OC)ccc1/C(C)=N/O | 63.2 µM | – | – | 35.2 µM | 6.2 µM | 8.58 µM | 34.2 µM | – | –
CCN(CC)CCOc1ccc(NC(=O)Nc2cc(OC)c(OC)c(-c3ccc(/C(C)=N/O)c(OC)c3)c2)cc1 | 13.4 µM | 36.4 µM | 11.7 µM | 20.3 µM | 18.4 µM | 1.29 µM | 58.1 µM | 48.4 µM | –
COc1cc(-c2cc(NC(=O)Nc3ccc(OCCN4CCCC4)cc3)cc(OC)c2OC)ccc1/C(C)=N/O | – | – | – | – | – | 4.81 µM | – | 49.2 µM | 38.9 µM
COc1cc(-c2cc(NC(=O)Nc3ccc(OCCCN4CCOCC4)cc3)cc(OC)c2OC)ccc1/C(C)=N/O | 92.3 µM | 9.88 µM | 11.7 µM | – | 4.91 µM | 0.29 µM | 6.8 µM | – | –
CCN(CC)CCOc1ccc(C)c(NC(=O)Nc2cc(OC)c(OC)c(-c3ccc(/C(C)=N/O)c(OC)c3)c2)c1 | – | – | 11.2 µM | – | 43.5 µM | 1.25 µM | – | – | 14.7 µM
CNC(=O)c1cc(Oc2ccc(NC(=O)Nc3ccc(Cl)c(C(F)(F)F)c3)cc2)ccn1 [SORAFENIB] | 7.68 µM | 9.86 µM | 3.36 µM | – | – | – | 102 µM | – | 5.21 µM
